Experiments:
BT-474 [1] = experiment: relative IC50 (midpoint of fitted logistic curve, plateau may be below 50% inhibition; CellTiter-Glo viability); higher = less potent; settings: 72 h
Summary of the method: (§1)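 Breast cancer cell lines and their resistant derivatives were seeded into 384-well plates containing library drugs at five concentrations across a 10 000-fold range, with resistant lines kept in medium with 1 μM of the selecting drug. After 72 h at 37 °C, CellTiter-Glo viability was read on a PHERAstar and normalised to vehicle-only and positive controls. Logistic dose–response fits in the Breeze pipeline gave drug sensitivity score, relative IC50 (curve midpoint) and top-dose inhibition.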

ZR-75-1 [2] = experiment: as above; settings: 72 h
Summary of the method: as §1

MCF-7 Tam1 [3] = experiment: as above; settings: 4-OH-tamoxifen in medium 1 µM; 72 h
Summary of the method: as §1

MCF-7 [4] = experiment: as above; settings: 72 h
Summary of the method: as §1

T-47D Tam1 [5] = experiment: as above; settings: 4-OH-tamoxifen in medium 1 µM; 72 h
Summary of the method: as §1

ZR-75-1 Tam1 [6] = experiment: as above; settings: 4-OH-tamoxifen in medium 1 µM; 72 h
Summary of the method: as §1

ZR-75-1 Tam2 [7] = experiment: as above; settings: 4-OH-tamoxifen in medium 1 µM; 72 h
Summary of the method: as §1

T-47D Tam2 [8] = experiment: as above; settings: 4-OH-tamoxifen in medium 1 µM; 72 h
Summary of the method: as §1

T-47D [9] = experiment: as above; settings: 72 h
Summary of the method: as §1

BT-474 Tam2 [10] = experiment: as above; settings: 4-OH-tamoxifen in medium 1 µM; 72 h
Summary of the method: as §1

BT-474 [11] = experiment: drug sensitivity score (DSS) (DSS (dimensionless)); higher = more sensitive; extreme values may be limits of the assay; settings: 72 h
Summary of the method: as §1

ZR-75-1 [12] = experiment: as above; settings: 72 h
Summary of the method: as §1

MCF-7 Tam1 [13] = experiment: as above; settings: 4-OH-tamoxifen in medium 1 µM; 72 h
Summary of the method: as §1

MCF-7 [14] = experiment: as above; settings: 72 h
Summary of the method: as §1

T-47D Tam1 [15] = experiment: as above; settings: 4-OH-tamoxifen in medium 1 µM; 72 h
Summary of the method: as §1

BT-474 Tam1 [16] = experiment: as above; settings: 4-OH-tamoxifen in medium 1 µM; 72 h
Summary of the method: as §1

ZR-75-1 Tam1 [17] = experiment: as above; settings: 4-OH-tamoxifen in medium 1 µM; 72 h
Summary of the method: as §1

ZR-75-1 Tam2 [18] = experiment: as above; settings: 4-OH-tamoxifen in medium 1 µM; 72 h
Summary of the method: as §1

T-47D Tam2 [19] = experiment: as above; settings: 4-OH-tamoxifen in medium 1 µM; 72 h
Summary of the method: as §1

T-47D [20] = experiment: as above; settings: 72 h
Summary of the method: as §1

BT-474 Tam2 [21] = experiment: as above; settings: 4-OH-tamoxifen in medium 1 µM; 72 h
Summary of the method: as §1

BT-474 Tam1 [22] = experiment: relative IC50 (midpoint of fitted logistic curve, plateau may be below 50% inhibition; CellTiter-Glo viability); higher = less potent; settings: 4-OH-tamoxifen in medium 1 µM; 72 h
Summary of the method: as §1

Row | SMILES | relative IC50 (BT-474 [1]; 4-OH-tamoxifen in medium 0 µM) [nM] | relative IC50 (BT-474 [1]; 4-OH-tamoxifen in medium 1 µM) [nM] | relative IC50 (MCF-7 Tam1 [3]) [nM] | relative IC50 (MCF-7 [4]; 4-OH-tamoxifen in medium 0 µM) [nM] | relative IC50 (MCF-7 [4]; 4-OH-tamoxifen in medium 1 µM) [nM] | relative IC50 (T-47D Tam1 [5]) [nM] | relative IC50 (T-47D Tam2 [8]) [nM] | relative IC50 (T-47D [9]; 4-OH-tamoxifen in medium 0 µM) [nM] | relative IC50 (T-47D [9]; 4-OH-tamoxifen in medium 1 µM) [nM] | relative IC50 (BT-474 Tam2 [10]) [nM] | relative IC50 (BT-474 Tam1 [22]) [nM] | relative IC50 (ZR-75-1 [2]; 4-OH-tamoxifen in medium 0 µM) [nM] | relative IC50 (ZR-75-1 [2]; 4-OH-tamoxifen in medium 1 µM) [nM] | relative IC50 (ZR-75-1 Tam1 [6]) [nM] | relative IC50 (ZR-75-1 Tam2 [7]) [nM] | drug sensitivity score (BT-474 [11]; 4-OH-tamoxifen in medium 0 µM) | drug sensitivity score (BT-474 [11]; 4-OH-tamoxifen in medium 1 µM) | drug sensitivity score (ZR-75-1 [12]; 4-OH-tamoxifen in medium 0 µM) | drug sensitivity score (ZR-75-1 [12]; 4-OH-tamoxifen in medium 1 µM) | drug sensitivity score (MCF-7 Tam1 [13]) | drug sensitivity score (MCF-7 [14]; 4-OH-tamoxifen in medium 0 µM) | drug sensitivity score (MCF-7 [14]; 4-OH-tamoxifen in medium 1 µM) | drug sensitivity score (T-47D Tam1 [15]) | drug sensitivity score (BT-474 Tam1 [16]) | drug sensitivity score (ZR-75-1 Tam1 [17]) | drug sensitivity score (ZR-75-1 Tam2 [18]) | drug sensitivity score (T-47D Tam2 [19]) | drug sensitivity score (T-47D [20]; 4-OH-tamoxifen in medium 0 µM) | drug sensitivity score (T-47D [20]; 4-OH-tamoxifen in medium 1 µM) | drug sensitivity score (BT-474 Tam2 [21])
1 | Cn1nnc2c(C(N)=O)ncn2c1=O [Temozolomide] | > 10000 | > 10000 | > 10000 | > 10000 | > 10000 | > 10000 | > 10000 | > 10000 | > 10000 | > 10000 |  |  | > 10000 | > 10000 | > 10000 | 0 | 0 | 0.0165 | 0 | 0 | 0 | 0 | 0 | 0.313 | 0 | 0 | 0 | 0 | 0 | 0
2 | Cc1cnc(NC(=O)Nc2cc(Br)c(C)cc2OC[C@@H]2CNCCO2)cn1 | > 1000 | > 1000 | > 1000 |  |  | > 1000 | > 1000 | > 1000 | > 1000 | > 1000 | > 1000 | > 1000 | > 1000 | > 1000 | > 1000 | 0 | 0 | 0 | 0 | 0 | 2.37 | 0.181 | 0 | 0 | 0 | 0 | 0 | 0 | 0 | 0
3 | Cn1cncc1[C@@](N)(c1ccc(Cl)cc1)c1ccc2c(c1)c(-c1cccc(Cl)c1)cc(=O)n2C [Tipifarnib  (Zarnestra)] | 817 | 1650 | 1510 | 277 | 329 | 862 | 877 |  |  | 1410 | 1500 | 606 | 405 | 762 | 808 | 4.27 | 6.99 | 6.34 | 7.52 | 3.82 | 11 | 12.6 | 6.21 | 7.78 | 7.03 | 6.76 | 4.67 | 3.25 | 0.489 | 7.37
4 | C[C@]12C=CC(=O)C=C1CC[C@@H]1[C@@H]2[C@@H](O)C[C@@]2(C)[C@H]1CC[C@]2(O)C(=O)CO [Prednisolone] | > 10000 | > 10000 | > 10000 |  |  | > 10000 | > 10000 | > 10000 | > 10000 | > 10000 | > 10000 | > 10000 | > 10000 | > 10000 | > 10000 | 0 | 0 | 0 | 0 | 0 | 0.324 | 0.407 | 0 | 0 | 0 | 0 | 0 | 0 | 0 | 0

More lines, main results first:

Row | relative IC50 (BT-474 [1]; 4-OH-tamoxifen in medium 0 µM) [nM] | relative IC50 (BT-474 [1]; 4-OH-tamoxifen in medium 1 µM) [nM] | relative IC50 (MCF-7 Tam1 [3]) [nM] | relative IC50 (MCF-7 [4]; 4-OH-tamoxifen in medium 0 µM) [nM] | relative IC50 (MCF-7 [4]; 4-OH-tamoxifen in medium 1 µM) [nM] | relative IC50 (T-47D Tam1 [5]) [nM] | relative IC50 (T-47D Tam2 [8]) [nM] | relative IC50 (T-47D [9]; 4-OH-tamoxifen in medium 0 µM) [nM] | relative IC50 (T-47D [9]; 4-OH-tamoxifen in medium 1 µM) [nM] | relative IC50 (BT-474 Tam2 [10]) [nM] | relative IC50 (BT-474 Tam1 [22]) [nM] | SMILES | relative IC50 (ZR-75-1 [2]; 4-OH-tamoxifen in medium 0 µM) [nM] | relative IC50 (ZR-75-1 [2]; 4-OH-tamoxifen in medium 1 µM) [nM] | relative IC50 (ZR-75-1 Tam1 [6]) [nM] | relative IC50 (ZR-75-1 Tam2 [7]) [nM] | drug sensitivity score (BT-474 [11]; 4-OH-tamoxifen in medium 0 µM) | drug sensitivity score (BT-474 [11]; 4-OH-tamoxifen in medium 1 µM) | drug sensitivity score (ZR-75-1 [12]; 4-OH-tamoxifen in medium 0 µM) | drug sensitivity score (ZR-75-1 [12]; 4-OH-tamoxifen in medium 1 µM) | drug sensitivity score (MCF-7 Tam1 [13]) | drug sensitivity score (MCF-7 [14]; 4-OH-tamoxifen in medium 0 µM) | drug sensitivity score (MCF-7 [14]; 4-OH-tamoxifen in medium 1 µM) | drug sensitivity score (T-47D Tam1 [15]) | drug sensitivity score (BT-474 Tam1 [16]) | drug sensitivity score (ZR-75-1 Tam1 [17]) | drug sensitivity score (ZR-75-1 Tam2 [18]) | drug sensitivity score (T-47D Tam2 [19]) | drug sensitivity score (T-47D [20]; 4-OH-tamoxifen in medium 0 µM) | drug sensitivity score (T-47D [20]; 4-OH-tamoxifen in medium 1 µM) | drug sensitivity score (BT-474 Tam2 [21])
5 | > 1000 | > 1000 | > 1000 | > 1000 | > 1000 | > 1000 | > 1000 | > 1000 | > 1000 | > 1000 |  | CNC(=O)c1cc(Oc2ccc(NC(=O)Nc3ccc(Cl)c(C(F)(F)F)c3)cc2)ccn1 [Sorafenib] | > 1000 | > 1000 | > 1000 | > 1000 | 0 | 0 | 0 | 0 | 0 | 0 | 0 | 0 | 0.0104 | 0 | 0 | 0 | 0 | 0 | 0
6 | > 1000 | > 1000 | > 1000 | > 1000 | > 1000 | > 1000 | > 1000 | > 1000 | > 1000 | > 1000 |  | COc1cc(CCc2cc(NC(=O)c3ccc(N4CC(C)NC(C)C4)cc3)n[nH]2)cc(OC)c1 (centres undefined) [AZD4547] | > 1000 | > 1000 | > 1000 | > 1000 | 0 | 0 | 0 | 0 | 0 | 0 | 0 | 0 | 0 | 0 | 0 | 0 | 0 | 0 | 0
7 | > 10000 | > 10000 | > 10000 | > 10000 | > 10000 | > 10000 | > 10000 | > 10000 | > 10000 | > 10000 |  | Cc1cn(-c2cc(NC(=O)c3ccc(C)c(Nc4nccc(-c5cccnc5)n4)c3)cc(C(F)(F)F)c2)cn1 [Nilotinib] | > 10000 | > 10000 | > 10000 | > 10000 | 0 | 0 | 0 | 0 | 0 | 0 | 0 | 0 | 1.63 | 0 | 0 | 0 | 0 | 0 | 0
